Reference: ChEMBL document CHEMBL1201862, “PubChem BioAssay data set” (2004)
Counter-ions that a name gives are not always drawn.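 Results reflect a 48-hour exposure of cells in 96-well plates to compound at five concentrations. GI50 is the concentration that inhibits growth by half.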 Calls of active or inactive are those of the source. No stated cut-off is given here; in the data, active = GI50 up to about 1.1 µM and inactive = higher.

Assays:
Test in all cases: growth of human tumour cells (NCI), 48 h
SW-620 = tested on: SW-620
COLO 205 = tested on: COLO 205
SF-268 = tested on: SF-268
SNB-75 = tested on: SNB-75
A498 = tested on: A498
RPMI-8226 = tested on: RPMI-8226
Malme-3M = tested on: Malme-3M
KM12 = tested on: KM12
HCC 2998 = tested on: HCC 2998
EKVX = tested on: EKVX
OVCAR-3 = tested on: OVCAR-3
UO-31 = tested on: UO-31
K562 = tested on: K562
SNB-19 = tested on: SNB-19
NCI-H23 = tested on: NCI-H23
A549 = tested on: A549
U-251 = tested on: U-251
CCRF-CEM = tested on: CCRF-CEM
HCT-15 = tested on: HCT-15
SR = tested on: SR

Structure (SMILES): CCOC(=O)c1cc(C(=O)O)c(=O)n2c1[nH]c1ccccc12
- GI50 (SW-620): > 100 µM (inactive)
- GI50 (COLO 205): > 100 µM (inactive)
- GI50 (SF-268): 61 µM (inactive)
- GI50 (SNB-75): 31.8 µM (inactive)
- GI50 (A498): > 100 µM (inactive)
- GI50 (RPMI-8226): 46.3 µM (inactive)
- GI50 (Malme-3M): > 100 µM (inactive)
- GI50 (KM12): > 100 µM (inactive)
- GI50 (HCC 2998): > 100 µM (inactive)
- GI50 (EKVX): > 100 µM (inactive)
- GI50 (OVCAR-3): > 100 µM (inactive)
- GI50 (UO-31): 23.9 µM (inactive)
- GI50 (K562): > 100 µM (inactive)
- GI50 (SNB-19): 44.3 µM (inactive)
- GI50 (NCI-H23): 26.9 µM (inactive)
- GI50 (A549): 60.8 µM (inactive)
- GI50 (U-251): 83.4 µM (inactive)
- GI50 (CCRF-CEM): > 100 µM (inactive)
- GI50 (HCT-15): 46.7 µM

Structure (SMILES): COc1ccc(N[C@H](C[S+]([O-])c2ccc(C)cc2)C(F)(F)C(F)(F)F)cc1 (some centres not stated)
- GI50 (SW-620): > 100 µM (inactive)
- GI50 (COLO 205): > 100 µM (inactive)
- GI50 (SF-268): 52.8 µM (inactive)
- GI50 (SNB-75): 21 µM (inactive)
- GI50 (A498): > 100 µM (inactive)
- GI50 (RPMI-8226): > 100 µM (inactive)
- GI50 (Malme-3M): > 100 µM (inactive)
- GI50 (KM12): > 100 µM (inactive)
- GI50 (HCC 2998): > 100 µM (inactive)
- GI50 (EKVX): 65.2 µM (inactive)
- GI50 (OVCAR-3): > 100 µM (inactive)
- GI50 (UO-31): > 100 µM (inactive)
- GI50 (K562): > 100 µM (inactive)
- GI50 (SNB-19): 35.8 µM (inactive)
- GI50 (NCI-H23): 43.5 µM (inactive)
- GI50 (A549): 99.5 µM (inactive)
- GI50 (U-251): 37.4 µM (inactive)
- GI50 (CCRF-CEM): > 100 µM (inactive)
- GI50 (HCT-15): > 100 µM

Structure (SMILES): NCCCCNOCCCN
- GI50 (SW-620): > 100 µM (inactive)
- GI50 (SR): > 100 µM (inactive)
- GI50 (COLO 205): > 100 µM (inactive)
- GI50 (SF-268): > 100 µM (inactive)
- GI50 (SNB-75): > 100 µM (inactive)
- GI50 (RPMI-8226): > 100 µM (inactive)
- GI50 (Malme-3M): > 100 µM (inactive)
- GI50 (KM12): > 100 µM (inactive)
- GI50 (HCC 2998): > 100 µM (inactive)
- GI50 (EKVX): > 100 µM (inactive)
- GI50 (OVCAR-3): > 100 µM (inactive)
- GI50 (UO-31): > 100 µM (inactive)
- GI50 (K562): > 100 µM (inactive)
- GI50 (SNB-19): > 100 µM (inactive)
- GI50 (NCI-H23): > 100 µM (inactive)
- GI50 (A549): > 100 µM (inactive)
- GI50 (U-251): > 100 µM (inactive)
- GI50 (CCRF-CEM): > 100 µM (inactive)

Structure (SMILES): O=C(/C=C1\Nc2ncccc2N=C1CC(=O)c1ccccc1)c1ccccc1
- GI50 (SW-620): 5.52 µM (inactive)
- GI50 (SR): 4.66 µM (inactive)
- GI50 (COLO 205): 4.97 µM (inactive)
- GI50 (SF-268): 2.53 µM (inactive)
- GI50 (SNB-75): 20.4 µM (inactive)
- GI50 (A498): 7.35 µM (inactive)
- GI50 (RPMI-8226): 5.37 µM (inactive)
- GI50 (Malme-3M): 37.4 µM (inactive)
- GI50 (KM12): 6.43 µM (inactive)
- GI50 (OVCAR-3): 1.66 µM (inactive)
- GI50 (UO-31): 5.47 µM (inactive)
- GI50 (K562): 5.11 µM (inactive)
- GI50 (SNB-19): 7.69 µM (inactive)
- GI50 (NCI-H23): 23.1 µM (inactive)
- GI50 (A549): 6.05 µM (inactive)
- GI50 (U-251): 3.24 µM (inactive)
- GI50 (CCRF-CEM): 2.49 µM (inactive)
- GI50 (HCT-15): 2 µM

Structure (SMILES): NCc1ccccc1-c1c2nc(c(-c3ccccc3CN)c3ccc([nH]3)c(-c3ccccc3CN)c3nc(c(-c4ccccc4CN)c4ccc1[nH]4)C=C3)C=C2
- GI50 (SW-620): 34.1 µM (inactive)
- GI50 (SR): > 10 µM (inactive)
- GI50 (COLO 205): 29.8 µM (inactive)
- GI50 (SF-268): 20.8 µM (inactive)
- GI50 (SNB-75): 5.96 µM (inactive)
- GI50 (RPMI-8226): 12.4 µM (inactive)
- GI50 (KM12): 20 µM (inactive)
- GI50 (HCC 2998): 25.9 µM (inactive)
- GI50 (EKVX): 23.8 µM (inactive)
- GI50 (OVCAR-3): 16.2 µM (inactive)
- GI50 (UO-31): 18.5 µM (inactive)
- GI50 (K562): 14.5 µM (inactive)
- GI50 (SNB-19): 18.6 µM (inactive)
- GI50 (NCI-H23): 21.8 µM (inactive)
- GI50 (A549): 22.1 µM (inactive)
- GI50 (U-251): 18.5 µM (inactive)
- GI50 (CCRF-CEM): 4.17 µM (inactive)
- GI50 (HCT-15): 22 µM

Structure (SMILES): O=[N+]([O-])c1ccc(S[C@@H]2[C@H]3c4c(-c5ccccc5)[nH]c(-c5ccccc5)c4[C@@H]2C[C@H]3Cl)cc1
- GI50 (SW-620): 3.37 µM (inactive)
- GI50 (SR): 1.14 µM (inactive)
- GI50 (COLO 205): 6.17 µM (inactive)
- GI50 (SF-268): 2.68 µM (inactive)
- GI50 (SNB-75): 2.15 µM (inactive)
- GI50 (A498): 4.82 µM (inactive)
- GI50 (Malme-3M): 10.6 µM (inactive)
- GI50 (KM12): 3.05 µM (inactive)
- GI50 (OVCAR-3): 3.33 µM (inactive)
- GI50 (UO-31): 1.62 µM (inactive)
- GI50 (SNB-19): 4.6 µM (inactive)
- GI50 (NCI-H23): 2.38 µM (inactive)
- GI50 (A549): 2.74 µM (inactive)
- GI50 (U-251): 4.17 µM (inactive)
- GI50 (HCT-15): 2.39 µM

Structure (SMILES): O=S1(=O)C[C@H](NCc2ccccc2)[C@H](NCc2ccccc2)C1
- GI50 (SW-620): > 100 µM (inactive)
- GI50 (SR): 18.4 µM (inactive)
- GI50 (COLO 205): > 100 µM (inactive)
- GI50 (SF-268): > 100 µM (inactive)
- GI50 (SNB-75): > 100 µM (inactive)
- GI50 (RPMI-8226): 22.8 µM (inactive)
- GI50 (Malme-3M): > 100 µM (inactive)
- GI50 (KM12): > 100 µM (inactive)
- GI50 (HCC 2998): > 100 µM (inactive)
- GI50 (EKVX): > 100 µM (inactive)
- GI50 (OVCAR-3): > 100 µM (inactive)
- GI50 (UO-31): > 100 µM (inactive)
- GI50 (K562): 54.5 µM (inactive)
- GI50 (SNB-19): > 100 µM (inactive)
- GI50 (NCI-H23): > 100 µM (inactive)
- GI50 (A549): > 100 µM (inactive)
- GI50 (U-251): 93.8 µM (inactive)
- GI50 (CCRF-CEM): 29.4 µM (inactive)

Structure (SMILES): CSc1ccccc1P(c1ccccc1SC)c1ccccc1SC
- GI50 (SW-620): > 100 µM (inactive)
- GI50 (SR): > 100 µM (inactive)
- GI50 (SF-268): > 100 µM (inactive)
- GI50 (A498): > 100 µM (inactive)
- GI50 (RPMI-8226): > 100 µM (inactive)
- GI50 (Malme-3M): > 100 µM (inactive)
- GI50 (KM12): > 100 µM (inactive)
- GI50 (EKVX): > 100 µM (inactive)
- GI50 (UO-31): > 100 µM (inactive)
- GI50 (K562): > 100 µM (inactive)
- GI50 (SNB-19): > 100 µM (inactive)
- GI50 (NCI-H23): > 100 µM (inactive)
- GI50 (A549): > 100 µM (inactive)
- GI50 (U-251): 31.6 µM (inactive)
- GI50 (CCRF-CEM): > 100 µM (inactive)
- GI50 (HCT-15): > 100 µM

Structure (SMILES): CCc1cccc(C)c1NC(=O)C(=O)CC(=O)c1ccc(Cl)s1
- GI50 (SW-620): > 100 µM (inactive)
- GI50 (SR): > 100 µM (inactive)
- GI50 (SF-268): > 100 µM (inactive)
- GI50 (SNB-75): > 100 µM (inactive)
- GI50 (A498): > 100 µM (inactive)
- GI50 (Malme-3M): > 100 µM (inactive)
- GI50 (KM12): > 100 µM (inactive)
- GI50 (HCC 2998): > 100 µM (inactive)
- GI50 (EKVX): > 100 µM (inactive)
- GI50 (UO-31): > 100 µM (inactive)
- GI50 (K562): > 100 µM (inactive)
- GI50 (SNB-19): > 100 µM (inactive)
- GI50 (NCI-H23): > 100 µM (inactive)
- GI50 (A549): > 100 µM (inactive)
- GI50 (U-251): > 100 µM (inactive)
- GI50 (CCRF-CEM): > 100 µM (inactive)
- GI50 (HCT-15): > 100 µM

Structure (SMILES): O=C1CC2CC3OC3[C@H]3c4cc5c(cc4C(=O)N1C23)OCO5 (some centres not stated)
- GI50 (SW-620): > 100 µM (inactive)
- GI50 (SR): > 100 µM (inactive)
- GI50 (COLO 205): > 100 µM (inactive)
- GI50 (SF-268): > 100 µM (inactive)
- GI50 (RPMI-8226): > 100 µM (inactive)
- GI50 (Malme-3M): > 100 µM (inactive)
- GI50 (KM12): > 100 µM (inactive)
- GI50 (HCC 2998): > 100 µM (inactive)
- GI50 (EKVX): > 100 µM (inactive)
- GI50 (OVCAR-3): > 100 µM (inactive)
- GI50 (UO-31): > 100 µM (inactive)
- GI50 (K562): > 100 µM (inactive)
- GI50 (SNB-19): > 100 µM (inactive)
- GI50 (A549): > 100 µM (inactive)
- GI50 (CCRF-CEM): > 100 µM (inactive)
- GI50 (HCT-15): > 100 µM

Structure (SMILES): CCCCc1oc2ccccc2c1C(=O)c1cc(I)c(OCCN(CC)CC)c(I)c1 [AMIODARONE HYDROCHLORIDE]
- GI50 (SW-620): 4.59 µM (inactive)
- GI50 (COLO 205): 4.21 µM (inactive)
- GI50 (SF-268): 11 µM (inactive)
- GI50 (SNB-75): 7.59 µM (inactive)
- GI50 (A498): 5.02 µM (inactive)
- GI50 (RPMI-8226): 3.71 µM (inactive)
- GI50 (Malme-3M): 4.89 µM (inactive)
- GI50 (KM12): 5.51 µM (inactive)
- GI50 (HCC 2998): 3.85 µM (inactive)
- GI50 (EKVX): 9.79 µM (inactive)
- GI50 (OVCAR-3): 6.22 µM (inactive)
- GI50 (K562): 3.88 µM (inactive)
- GI50 (SNB-19): 6.21 µM (inactive)
- GI50 (NCI-H23): 6.15 µM (inactive)
- GI50 (A549): 8.51 µM (inactive)
- GI50 (U-251): 4.16 µM (inactive)
- GI50 (CCRF-CEM): 4.54 µM (inactive)
- GI50 (HCT-15): 4.12 µM
